Assay results as given in patent publication US12630565B2, “DNA-dependent protein kinase inhibitor” (DIZAL (JIANGSU) PHARMACEUTICAL CO., LTD., priority 2019, dated 2026).

What was measured:
[1] = biological target: Full length human DNAPK protein (Homo sapiens, UniProt P78527); assay: DNA-PK enzymatic assay (TR-FRET); format: biochemical; conditions: 10 μM ATP, 1.6 μM peptide substrate
[2] = tested on: Rat hepatocyte; assay: Metabolic stability assay (rat hepatocyte Clint); format: in vitro ADME; conditions: 1 μM compound, cryopreserved hepatocytes 1 million cells per mL
Procedure: Viability of cryopreserved hepatocytes was determined using trypan blue and the cell conc. was adjusted to […] with buffer. 1 μM compound (in Acetonitrile; 0.01% DMSO) was incubated with 250 μL of hepatocytecells (1 million cells per mL) in a 96 deep well plate. Reaction was stopped at different time points (0, 0.5, 5, 15, 30, 45, 60, 80, 100 and 120 min) by addition of 3 volumes of chilled acetonitrile to 20 μL of reaction mixture and centrifuged at 4° C. for 15 min. 40 μL of supernatant was diluted to 200 μL with pure water and analyzed using LC-MS/MS.
In vitro hepatocyte clearance was estimated based on determination of elimination half-life (T1/2) of compounds disappearance from their initial concentrations. Peak area ratios of each compound (test or control) to IS was calculated. Drug elimination rate constant k (min−1), T1/2 (min), and in vitro intrinsic clearance CLint (μL/min/E6) was calculated according to the following equations: […]
Where Chep (cells×μL^−1) is the cell concentration in the incubation system.

[3] = Metabolic stability assay (human microsomal Clint); format: in vitro ADME; conditions: human, pooled human liver microsomes, pH 7.4, 1 μM compound, 1 mg/mL microsomes, 1 mM NADPH, 37° C.
Procedure: 1 μM compound was incubated with 1 mg/mL of microsomes (Pooled HLM with 20 mg/ml protein cone) at 37° C. in 250 μL of buffer (100 mM phosphate buffer, pH-7.4) containing 1 mM NADPH solution. 20 μL of incubation mix was quenched with 5 volumes chilled acetonitrile at different time points 0, 0.5, 5, 10, 15, 20 and 30 min in a fresh 96 well plate. The quench plate was centrifuged at 4000 rpm for 15 min. 40 μL of supernatant was diluted to 200 μL with pure water and analyzed using LC-MS/MS.
In vitro intrinsic clearance of the drugs in the microsome CLint (μl/min/mg) was calculated in the similar manner as the CLint in the hepatocyte.

[4] = tested on: MDR1, BCRP; assay: MDCKII-MDR1-BCRP efflux assay; format: in vitro ADME; conditions: dog, pH 7.4, 5 μM compound, HBSS pH 7.4, read-out: MDCK-Mdr1-BCRP efflux ratio
Procedure: The apical-to-basolateral (A-B) and basolateral-to-apical (B-A) transport of compound in HBSS (25 mM HEPES, pH 7.4) was measured across MDCKII-MDR1-BCRP cell monolayers. Incubations were performed at approximately 37° C. for 120 min, with functionality of the test system being confirmed using 5 μM digoxin as a positive control substrate. Transport of 5 μM compound and control compound were determined by quantifying substrate concentration in the incubation medium of donor compartment at the beginning of the incubation period, and both donor and receiver compartments at the end of the incubation period. The data was used to calculate the apparent permeability (Papp). All incubations were performed in triplicate and integrity of the cell monolayers was confirmed using the marker Lucifer yellow.
The permeability coefficient Pexact (cm/s) was calculated using the equation: […]
The Pexact ratio was calculated using the equation: […]
The efflux ratio was calculated using the equation: […]
Where dCr/dt is the cumulative concentration of compound in the receiver chamber as a function of time (μM/s); Vr is the solution volume in the receiver chamber (0.1 mL on the apical side, 0.3 mL on the basolateral side); A is the surface area for the transport, i.e. 0.11 cm2 for the area of the monolayer; CO is the initial concentration in the donor chamber (μM).

IC50 [1] [nM] | Rat hepatocyte CLint (μl/min/10^−6 cells) [2] [μl/min/10^−6 cells] | microsomal CLint at 1 μM [3] [µL/min/mg] | efflux ratio at 120 min, 5 μM [4] | SMILES
2.2 | 32.9 | 70.8 | 1.9 | Cc1cc2ncnn2cc1Nc1ncc2c(C)nn(CCCC(F)(F)F)c2n1 [Example 58, 3-methyl-N-(7-methyl-[1,2,4]triazolo[1,5-a]pyridin-6-yl)-1-(4,4,4-trifluorobutyl)-1H-pyrazolo[3,4-d]pyrimidin-6-amine]
3.9 | <1 | 12.9 | 2.8 | Cc1cc2ncnn2cc1Nc1ncc2c(C)nn(C3CCOCC3)c2n1 [Example 13, 3-methyl-N-(7-methyl-[1,2,4]triazolo[1,5-a]pyridin-6-yl)-1-(tetrahydro-2H-pyran-4-yl)-1H-pyrazolo[3,4-d]pyrimidin-6-amine]
2.1 | 153.3 | 151 | 0.9 | Cc1cc2ncnn2cc1Nc1ncc2c(C)nn([C@H]3C[C@H](C)C3)c2n1 [Example 39, 3-methyl-N-(7-methyl-[1,2,4]triazolo[1,5-a]pyridin-6-yl)-1-((1r,3r)-3-methylcyclobutyl)-1H-pyrazolo[3,4-d]pyrimidin-6-amine]
1.6 | 10.7 | 47.3 | 0.9 | Cc1cc2ncnn2cc1Nc1ncc2c(n1)c(C(C)C)nn2C [Example 4, 3-isopropyl-1-methyl-N-(7-methyl-[1,2,4]triazolo[1,5-a]pyridin-6-yl)-1H-pyrazolo[4,3-d]pyrimidin-5-amine]
0.7 | 190.4 | > 300 | 1.8 | Cc1cc2ncnn2cc1Nc1ncc2c(n1)c([C@H]1CC[C@@H](OC(F)F)CC1)nn2C [Example 11, 3-((1s,4s)-4-(difluoromethoxy)cyclohexyl)-1-methyl-N-(7-methyl-[1,2,4]triazolo[1,5-a]pyridin-6-yl)-1H-pyrazolo[4,3-d]pyrimidin-5-amine]
1.6 | 9.6 | 71.1 | 2 | Cc1cc2ncnn2cc1Nc1ncc2c(C)nn(C3CCOC(C)(C)C3)c2n1 (single isomer, unassigned) [Example 116, 1-(2,2-dimethyltetrahydro-2H-pyran-4-yl)-3-methyl-N-(7-methyl-[1,2,4]triazolo[1,5-a]pyridin-6-yl)-1H-pyrazolo[3,4-d]pyrimidin-6-amine]
36 | 5.3 | 5.5 | 2.4 | COCCn1nc(C)c2cnc(Nc3cn4ncnc4cc3C)nc21 [Example 63, 1-(2-methoxyethyl)-3-methyl-N-(7-methyl-[1,2,4]triazolo[1,5-a]pyridin-6-yl)-1H-pyrazolo[3,4-d]pyrimidin-6-amine]
13.5 | 22.7 | 20.4 | 0.7 | Cc1cc2nccn2cc1Nc1ncc2c(C)nn(C(C)C)c2n1 [Example 60, 1-isopropyl-3-methyl-N-(7-methylimidazo[1,2-a]pyridin-6-yl)-1H-pyrazolo[3,4-d]pyrimidin-6-amine]
3.7 | 7.8 | 47 | 3.5 | Cc1cc2ncnn2cc1Nc1ncc2c(C)nn(C3CCOCC3C)c2n1 (single isomer, unassigned) [Example 112, 3-methyl-N-(7-methyl-[1,2,4]triazolo[1,5-a]pyridin-6-yl)-1-(3-methyltetrahydro-2H-pyran-4-yl)-1H-pyrazolo[3,4-d]pyrimidin-6-amine]
1.8 | 1.0 | 5.9 | 7.5 | Cc1cc2ncnn2cc1Nc1ncc2c(C)nn(CCC#N)c2n1 [Example 72, 3-(3-methyl-6-((7-methyl-[1,2,4]triazolo[1,5-a]pyridin-6-yl)amino)-1H-pyrazolo[3,4-d]pyrimidin-1-yl)propanenitrile]
1.6 | 1.7 | 9.9 | 2.3 | Cc1cc2nccn2cc1Nc1ncc2c(C)nn(C3CCOCC3)c2n1 [Example 14, 3-methyl-N-(7-methylimidazo[1,2-a]pyridin-6-yl)-1-(tetrahydro-2H-pyran-4-yl)-1H-pyrazolo[3,4-d]pyrimidin-6-amine]
8.4 | 11.8 | 26.4 | 0.8 | Cc1nn(C2CCOCC2)c2nc(Nc3cn4ncnc4cc3Cl)ncc12 [Example 16, N-(7-chloro-[1,2,4]triazolo[1,5-a]pyridin-6-yl)-3-methyl-1-(tetrahydro-2H-pyran-4-yl)-1H-pyrazolo[3,4-d]pyrimidin-6-amine]
3 | 13.6 | 134 | 4.2 | CO[C@H]1CC[C@H](n2nc(C)c3cnc(Nc4cn5ccnc5cc4C)nc32)CC1 [Example 26, 1-((1r,4r)-4-methoxycyclohexyl)-3-methyl-N-(7-methylimidazo[1,2-a]pyridin-6-yl)-1H-pyrazolo[3,4-d]pyrimidin-6-amine]
1.6 | 6.8 | 35.5 | 4.9 | Cc1cc2nccn2cc1Nc1ncc2c(n1)c(C1=CCOCC1)nn2C [Example 6, 3-(3,6-dihydro-2H-pyran-4-yl)-1-methyl-N-(7-methylimidazo[1,2-a]pyridin-6-yl)-1H-pyrazolo[4,3-d]pyrimidin-5-amine]
0.7 | 20.7 | 234 | 1.7 | CO[C@H]1CC[C@@H](c2nn(C)c3cnc(Nc4cn5ncnc5cc4C)nc32)CC1 [Example 8, 3-((1s,4s)-4-methoxycyclohexyl)-1-methyl-N-(7-methyl-[1,2,4]triazolo[1,5-a]pyridin-6-yl)-1H-pyrazolo[4,3-d]pyrimidin-5-amine]
2.4 | 33.4 | > 300 | 1.4 | Cc1cc2ncnn2cc1Nc1ncc2c(C)nn(C3CC(C)OC(C)C3)c2n1 (single isomer, unassigned) [Example 86, 1-(2,6-dimethyltetrahydro-2H-pyran-4-yl)-3-methyl-N-(7-methyl-[1,2,4]triazolo[1,5-a]pyridin-6-yl)-1H-pyrazolo[3,4-d]pyrimidin-6-amine]
8.8 | 6.3 | 13.6 | 3 | COC(C)Cn1nc(C)c2cnc(Nc3cn4ncnc4cc3C)nc21 (racemic) [Example 69, 1-(2-methoxypropyl)-3-methyl-N-(7-methyl-[1,2,4]triazolo[1,5-a]pyridin-6-yl)-1H-pyrazolo[3,4-d]pyrimidin-6-amine]
2 | 15.3 | 120 | 1.9 | Cc1cc2ncnn2cc1Nc1ncc2c(C)nn(CCCOC(F)(F)F)c2n1 [Example 66, 3-methyl-N-(7-methyl-[1,2,4]triazolo[1,5-a]pyridin-6-yl)-1-(3-(trifluoromethoxy)propyl)-1H-pyrazolo[3,4-d]pyrimidin-6-amine]
